Data set [1] deals with T1, Alpha-1D adrenergic receptor (Homo sapiens, UniProt P25100).
T1 sequence (P25100 whole entry): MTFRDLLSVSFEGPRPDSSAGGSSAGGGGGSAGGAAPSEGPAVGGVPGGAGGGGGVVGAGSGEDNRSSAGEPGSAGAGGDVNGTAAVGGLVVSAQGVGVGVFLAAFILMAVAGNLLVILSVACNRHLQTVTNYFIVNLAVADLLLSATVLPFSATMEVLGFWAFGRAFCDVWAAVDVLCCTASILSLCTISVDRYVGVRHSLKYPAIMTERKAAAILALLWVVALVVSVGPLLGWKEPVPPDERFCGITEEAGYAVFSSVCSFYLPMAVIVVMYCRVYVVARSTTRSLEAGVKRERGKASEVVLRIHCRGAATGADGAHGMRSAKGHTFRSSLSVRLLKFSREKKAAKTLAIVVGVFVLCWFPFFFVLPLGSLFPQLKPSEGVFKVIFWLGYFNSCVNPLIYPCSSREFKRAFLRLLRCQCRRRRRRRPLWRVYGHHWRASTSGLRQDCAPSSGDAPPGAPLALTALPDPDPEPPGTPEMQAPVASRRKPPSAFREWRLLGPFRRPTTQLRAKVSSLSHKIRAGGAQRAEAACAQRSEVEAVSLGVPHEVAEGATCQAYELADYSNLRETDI
The data set is classed as cell membranes, HEK293, Membrane.

The target in data set [2] is T2, Alpha-2C adrenergic receptor (Homo sapiens, UniProt P18825).
T2 sequence (P18825 whole entry): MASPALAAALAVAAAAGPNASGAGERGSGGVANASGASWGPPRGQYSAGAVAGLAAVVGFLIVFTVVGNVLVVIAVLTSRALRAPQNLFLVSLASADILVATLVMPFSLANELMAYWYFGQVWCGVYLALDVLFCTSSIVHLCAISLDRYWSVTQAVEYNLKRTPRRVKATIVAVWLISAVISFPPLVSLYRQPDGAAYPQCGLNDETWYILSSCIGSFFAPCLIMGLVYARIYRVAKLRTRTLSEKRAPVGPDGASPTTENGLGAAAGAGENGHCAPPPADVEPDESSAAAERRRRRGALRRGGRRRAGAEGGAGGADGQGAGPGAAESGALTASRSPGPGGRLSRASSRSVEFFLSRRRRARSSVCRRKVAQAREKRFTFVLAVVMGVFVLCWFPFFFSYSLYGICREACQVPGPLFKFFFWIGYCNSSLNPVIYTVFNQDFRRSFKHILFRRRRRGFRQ
Briefly: DRUGMATRIX: Adrenergic Alpha-2C radioligand binding (ligand: [3H] MK-912). The format is cell membranes, Sf9, Membrane.

Data set [3] deals with Beta-2 adrenergic receptor (Homo sapiens, UniProt P07550). As to the kind of experiment: DRUGMATRIX: Adrenergic beta2 radioligand binding (ligand: [3H] CGP-12177). The format is cell membranes, Membrane. The conditions noted are these: cho; Not Active = under 50% inhibition at 10 µM.
For data set [4], the target named is Aldo-keto reductase family 1 member B1 (Rattus norvegicus, UniProt P07943). The data set is classed as tissue-based, Lens of camera-type eye.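 Also: inhibition of aldose reductase enzyme activity, measured with DL-glyceraldehyde as the substrate; in other assays of this panel Not Active means under 50% inhibition at 10 µM.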
The nature of data set [5]: DRUGMATRIX: Tumor Necrosis Factor (TNF), Non-Selective radioligand binding (ligand: [125I] TNF-alpha). The data set is classed as cell membranes, Membrane. The conditions noted are these: u-937; Not Active = under 50% inhibition at 10 µM.
In data set [6] the target is T3, Vasoactive intestinal polypeptide receptor 1 (Homo sapiens, UniProt P32241). Also: in other assays of this panel Not Active means under 50% inhibition at 10 µM.
T3 sequence (P32241 whole entry): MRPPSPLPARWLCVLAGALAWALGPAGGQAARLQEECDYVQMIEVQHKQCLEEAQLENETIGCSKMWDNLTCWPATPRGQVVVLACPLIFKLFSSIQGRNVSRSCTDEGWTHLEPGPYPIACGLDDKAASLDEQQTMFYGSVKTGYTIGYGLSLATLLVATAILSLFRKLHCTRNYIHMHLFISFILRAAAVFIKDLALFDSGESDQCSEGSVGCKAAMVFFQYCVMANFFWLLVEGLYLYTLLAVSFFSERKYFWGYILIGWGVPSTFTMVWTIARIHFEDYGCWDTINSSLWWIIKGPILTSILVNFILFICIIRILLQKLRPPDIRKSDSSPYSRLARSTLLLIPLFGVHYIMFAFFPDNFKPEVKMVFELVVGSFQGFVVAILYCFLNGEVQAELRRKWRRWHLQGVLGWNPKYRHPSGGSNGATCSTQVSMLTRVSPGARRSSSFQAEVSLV
The format is cell membranes, Membrane. The conditions noted are these: ht-29.

The nature of data set [7]: DRUGMATRIX: Nicotinic Acetylcholine radioligand binding (ligand: [125I] Epibatidine). The data set is classed as cell membranes, Membrane. The conditions noted are these: imr-32; Not Active = under 50% inhibition at 10 µM.
Data set [8] can be described thus: DRUGMATRIX: Platelet-Derived Growth Factor (PDGF) radioligand binding (ligand: [125I] PDGF). The format is cell-based. The conditions noted are these: nih3t3; Not Active = under 50% inhibition at 10 µM.
The next data set concerns the target T4, Cathepsin G (Homo sapiens, UniProt P08311).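 Also: inhibition of Cathepsin G enzyme activity, tested on an AMC-conjugated peptide substrate; in other assays of this panel Not Active means under 50% inhibition at 10 µM.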
T4 sequence (P08311 whole entry): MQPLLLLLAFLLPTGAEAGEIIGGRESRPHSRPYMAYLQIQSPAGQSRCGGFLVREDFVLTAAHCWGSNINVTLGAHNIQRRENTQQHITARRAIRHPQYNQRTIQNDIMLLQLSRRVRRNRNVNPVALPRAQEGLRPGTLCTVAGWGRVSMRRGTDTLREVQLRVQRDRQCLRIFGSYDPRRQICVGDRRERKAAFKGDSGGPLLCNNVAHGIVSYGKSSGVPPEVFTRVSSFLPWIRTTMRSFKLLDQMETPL
The data set is classed as tissue-based. The conditions noted are these: neutrophil.

The target of data set [9] is Mitogen-activated protein kinase 1 (Homo sapiens, UniProt P28482). As to the kind of experiment: DRUGMATRIX: Protein Serine/Threonine Kinase, ERK2 enzyme inhibition (substrate: Myelin Basic Protein). Also noted: species or system Escherichia coli. The conditions noted are these: Not Active = under 50% inhibition at 10 µM.
The target of data set [10] is 5-hydroxytryptamine receptor 1B (Rattus norvegicus, UniProt P28564). The data set is classed as cell membranes, Wistar, Cerebral cortex, Membrane. Also: in other assays of this panel Not Active means under 50% inhibition at 10 µM.
Another data set deals with Cytochrome P450 2E1 (Homo sapiens, UniProt P05181). The conditions noted are these: bti-tn-5b1-4.

Each structure is given as a SMILES string.

Sequence of Cytochrome P450 2E1 (P05181 whole entry): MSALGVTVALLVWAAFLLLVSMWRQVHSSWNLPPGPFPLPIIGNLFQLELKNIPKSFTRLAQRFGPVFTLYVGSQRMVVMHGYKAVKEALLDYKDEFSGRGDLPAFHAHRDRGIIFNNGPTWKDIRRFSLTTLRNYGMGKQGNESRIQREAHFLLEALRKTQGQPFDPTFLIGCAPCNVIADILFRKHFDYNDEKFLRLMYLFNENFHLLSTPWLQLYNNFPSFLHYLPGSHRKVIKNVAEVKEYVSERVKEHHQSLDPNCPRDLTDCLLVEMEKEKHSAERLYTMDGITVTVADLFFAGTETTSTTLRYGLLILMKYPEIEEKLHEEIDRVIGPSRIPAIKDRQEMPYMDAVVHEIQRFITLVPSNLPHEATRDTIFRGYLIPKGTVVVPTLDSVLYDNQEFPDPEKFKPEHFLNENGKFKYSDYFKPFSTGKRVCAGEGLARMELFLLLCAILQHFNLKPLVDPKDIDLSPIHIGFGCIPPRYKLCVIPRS
Sequence of 5-hydroxytryptamine receptor 1B (P28564 whole entry): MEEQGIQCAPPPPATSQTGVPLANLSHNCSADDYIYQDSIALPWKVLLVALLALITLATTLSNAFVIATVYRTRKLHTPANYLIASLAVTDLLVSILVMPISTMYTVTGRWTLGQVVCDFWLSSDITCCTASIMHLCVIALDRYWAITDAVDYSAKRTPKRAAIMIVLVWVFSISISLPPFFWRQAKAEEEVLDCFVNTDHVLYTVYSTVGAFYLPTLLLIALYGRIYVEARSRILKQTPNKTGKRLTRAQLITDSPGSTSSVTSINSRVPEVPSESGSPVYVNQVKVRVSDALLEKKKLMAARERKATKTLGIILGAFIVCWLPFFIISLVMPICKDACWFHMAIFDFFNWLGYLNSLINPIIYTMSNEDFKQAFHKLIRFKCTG
Sequence of Mitogen-activated protein kinase 1 (P28482 whole entry): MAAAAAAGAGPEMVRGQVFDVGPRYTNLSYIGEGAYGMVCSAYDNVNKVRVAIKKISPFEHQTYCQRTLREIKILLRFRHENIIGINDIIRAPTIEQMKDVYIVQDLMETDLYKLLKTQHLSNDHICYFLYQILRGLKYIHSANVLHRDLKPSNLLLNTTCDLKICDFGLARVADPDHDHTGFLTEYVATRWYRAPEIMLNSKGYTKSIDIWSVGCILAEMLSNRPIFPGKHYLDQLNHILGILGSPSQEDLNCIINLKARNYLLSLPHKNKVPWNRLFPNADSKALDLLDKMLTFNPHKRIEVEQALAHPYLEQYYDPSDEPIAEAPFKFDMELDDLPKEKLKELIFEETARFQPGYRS
Sequence of Beta-2 adrenergic receptor (P07550 whole entry): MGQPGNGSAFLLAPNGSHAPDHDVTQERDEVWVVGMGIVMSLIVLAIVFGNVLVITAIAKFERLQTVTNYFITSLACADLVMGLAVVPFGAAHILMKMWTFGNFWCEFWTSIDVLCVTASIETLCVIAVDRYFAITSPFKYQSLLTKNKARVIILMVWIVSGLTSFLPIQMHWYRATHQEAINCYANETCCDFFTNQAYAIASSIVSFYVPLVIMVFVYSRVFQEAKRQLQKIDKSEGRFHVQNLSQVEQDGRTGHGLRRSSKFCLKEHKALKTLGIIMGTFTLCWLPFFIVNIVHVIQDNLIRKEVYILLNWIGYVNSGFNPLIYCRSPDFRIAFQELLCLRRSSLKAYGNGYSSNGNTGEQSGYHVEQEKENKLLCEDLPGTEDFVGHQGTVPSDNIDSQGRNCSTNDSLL

Regarding `c1ccc2c(c1)cc1ccc3cccc4ccc2c1c34`, the IC50 result in data set [1] (hek293), in data set [2] (sf9), in data set [3], in [4], in data set [5] and in data set [6] was “Not Active” throughout. Further, the IC50 result (in data set [7]; in data set [8]; against Cathepsin G; in data set [9]; in data set [10]; against Cytochrome P450 2E1) was “Not Active” throughout. Besides, the Ki result (in data set [5]; in [7]; in data set [8]; on Cytochrome P450 2E1) was “Not Active” in each case.

With `CCCCCCCCCc1ccc(O)cc1` [4-NONYLPHENOL], the IC50 entry in [1] (hek293), in data set [2] (sf9), in data set [3], in data set [4], in data set [5] and in [6] was “Not Active” each time. Besides, the IC50 entry (in data set [7]; in data set [8]; at Cathepsin G; in data set [9]; in data set [10]; at Cytochrome P450 2E1) was “Not Active” each time. The Ki result (in data set [5]; in [7]; in [8]; at Cytochrome P450 2E1) was “Not Active” each time.

As to `N#C[C@H](O[C@@H]1O[C@H](CO[C@@H]2O[C@H](CO)[C@@H](O)[C@H](O)[C@H]2O)[C@@H](O)[C@H](O)[C@H]1O)c1ccccc1` [AMYGDALIN], the IC50 result in data set [1] (hek293), in data set [2] (sf9), in data set [3], in data set [4], in data set [5] and in data set [6] was “Not Active” in each case. For the same molecule, the IC50 entry (in data set [7]; in [8]; on Cathepsin G; in data set [9]; in data set [10]; on Cytochrome P450 2E1) was “Not Active” in each case. The Ki result (in data set [5]; in [7]; in data set [8]; at Cytochrome P450 2E1) was “Not Active” in each case.

In the case of `CN1C[C@H](C(=O)N[C@]2(C)O[C@@]3(O)[C@@H]4CCCN4C(=O)[C@H](Cc4ccccc4)N3C2=O)C=C2c3cccc4[nH]cc(c34)C[C@H]21` [ERGOTAMINE], the IC50 (in general, the midpoint of a concentration-inhibition curve) in data set [1] (read-out: IC50) was 49 nM; in data set [2] (read-out: IC50), 12 nM; in data set [4], “Not Active”; in data set [5], “Not Active”; in [6], “Not Active”; in data set [7], “Not Active”. For the same molecule, the IC50 result in data set [8] is “Not Active”; at Cathepsin G, “Not Active”; in [9], “Not Active”; in data set [10] (read-out: IC50) it was 0.201 nM; against Cytochrome P450 2E1, “Not Active”. The Ki (as a rule, a measure of affinity in units of concentration, obtained from inhibition or displacement) in data set [1] (read-out: Ki) was 24 nM; in data set [2] (read-out: Ki), 1.81 nM; in [5], “Not Active”; in data set [7] it was “Not Active”; in data set [8], “Not Active”; in data set [10] (read-out: Ki), 0.091 nM. Besides, at Cytochrome P450 2E1, the Ki entry is “Not Active”.

Values taken from ChEMBL document CHEMBL1909046, “DrugMatrix in vitro pharmacology data”.
